Laboratory results: PubChem BioAssay AID743392 (Broad Institute, 2014)
Active and inactive are the calls of the source.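 Rule for the calls: active = phosphorylated Mpk1, a fungal stress kinase, cut by at least 20% below its untreated level on western blot; inactive = the rest.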

Tested on: Mitogen-activated protein kinase MPK1 phosphorylation (Cryptococcus neoformans H99)
Experiment: inhibition of Mpk1 phosphorylation in C. neoformans, mechanism study for C. neoformans antifungal project, cell-based, single point, dry powder, imaging (AID 743392)
Settings: C. neoformans H99, pMpk1 Western blot, 2 h; active compounds read high; concentration not given here

First: Fc1cccc(OCCn2c(=S)[nH]c3ccccc32)c1
Second: S=c1[nH]c2ccccc2n1CCOc1ccccc1Cl
The inhibition of the first is lower: 52% for the first, 56% for the second.

Going from `CC(C)c1ccc(OCCn2c(=S)[nH]c3ccccc32)cc1` to `Cc1ccc(C(C)C)c(OCCn2c(=S)[nH]c3ccccc32)c1`, the inhibition falls from 62% to 53%.

With `Cc1cccc(OCCn2c(=S)[nH]c3c(F)cccc32)c1` the inhibition was 4% (inactive).
